Data as given in PMC9926234, “Iterative computational design and crystallographic screening identifies potent inhibitors targeting the Nsp3 macrodomain of SARS-CoV-2” (Proceedings of the National Academy of Sciences of the …, 2023).
Like-named read-outs stand apart in the source and are kept apart here.

Molecular target: SARS-CoV-2 NSP3 Mac1 (Severe acute respiratory syndrome coronavirus 2, UniProt P0DTD1)
Type: binding
Parameters: contains a conserved macrodomain enzyme (Mac1)
Settings: for Spearman est (compound concentration vs apparent Tm): DSF dose responsiveness, 1 µM nsp3 mac1, adj p given
Method: DSF and associated compound handling was performed as described ([12]), with 5 µM dye “Fluorescent Yellow” (Jacquard iDye Cat #JID1405) used in place of SYPRO Orange. Compounds were tested in triplicate, at seven concentrations in two-fold serial dilutions, at a top concentration of either 1,000 or 100 μM. To minimize experimental noise arising from plate location-based effects on Tma, all concentrations and replicates for each compound were tested within a single region of the microtiter plates, including a DMSO-only control from which ΔTmas were calculated for that compound. […] For each compound, to determine statistical significance of the dose responsive thermal shift, the Spearman’s coefficient was calculated between compound concentration and ΔTma.

[1] = maximal thermal upshift vs DMSO control

Compound | DSF max dTma [1] [°C] | Spearman est (compound concentration vs apparent Tm) | DSF max dTma (maximal thermal upshift)
NC(=O)c1ccc(CCSc2cccc(F)c2)cc1 [Z8885] | 0.09 |  | 
c1ccc2c(c1)N(c1ncnc3[nH]ccc13)CC21CC1 [Z9310] | 0 |  | 
CS(=O)(=O)C1CCCN(c2ncnc3[nH]c(Cl)cc23)C1 (stereo not shown) [Z9550] | 0.64 |  | 
c1ccc2c(-c3noc(CCCc4nc(C5CC5)no4)n3)n[nH]c2c1 [Z9652] | 0.72 |  | 
O=C(Nc1nc2ccccc2c(=O)[nH]1)c1cccnc1 [Z1082933628] |  | 0.37 | 
O=C(NC(C(=O)O)c1c[nH]c2ccccc12)c1ncnc2[nH]ccc12 (stereo not shown) [Z4661819162] |  | −0.51 | 
CCOC(=O)C(NC(=O)c1c[nH]c2ncncc12)c1c[nH]c2ccccc12 (stereo not shown) [Z4661819167] |  | 0.82 | 
O=C1CSc2cc(C(=O)OC3c4ccccc4CC3F)ccc2N1 (stereo not shown) [Z4718398554] |  | −0.18 | 
Cc1nc(Cn2cnc3c(N)nc(N)nc32)cs1 [Z4718398569] |  | 0.06 | 
Nc1nc(N)c2ncn(Cc3csc(Cl)n3)c2n1 [Z4718398572] |  | 0.89 | 
Nc1nc(N)c2ncn(Cc3csc(C4CC4)n3)c2n1 [Z4718398585] |  | 0.75 | 
O=C(Nc1cccnc1)Nc1nc2ccccc2c(=O)[nH]1 [Z4718398593] |  | −0.56 | 
O=C(NCc1nc2ccccc2c(=O)[nH]1)Nc1cccnc1 [Z4718398598] |  | −0.41 | 
O=C(Nc1cccnc1)Nc1ccc2ccccc2n1 [Z4718398614] |  | −0.43 | 
COc1ccc(Cl)cc1Cn1cnc2c(N)ncnc21 [ZINC000110510953] |  | 0.55 | 
O=C1CCCN1CCSc1ncnc2[nH]cnc12 [ZINC000118179920] |  | 0.78 | 
CC1CN(C(=O)CCc2nc(-c3ccncc3)no2)C1c1ccccc1 (stereo not shown) [ZINC000173980856] |  | 0.61 | 
O=C(c1cccc(O)c1)N1CCC(Nc2ccccc2)C1 (stereo not shown) [ZINC000182324508] |  | 0.13 | 
Cc1cc(C(=O)C(C#N)c2nnc3n2CCCCC3)cc(O)n1 (stereo not shown) [ZINC000183202483] |  | −0.33 | 0 ˚C
Cc1ccc(-c2noc(C3CC(=O)N(c4cn[nH]c4)C3)n2)cc1 (stereo not shown) [ZINC000189176019] |  | −0.48 | 
Cc1oc(=O)oc1CSc1ncnc2[nH]cnc12 [ZINC000222377450] |  | 0.54 | 
c1ccc(-c2n[nH]c(Cc3noc([C@@H]4CCCO4)n3)n2)cc1 [ZINC000273900063] |  | −0.02 | 0.03 ˚C
OCc1cn(C2CCCN(c3ncnc4[nH]ccc34)C2)nn1 (stereo not shown) [ZINC000292637864] |  | 0.65 | 
O=C(c1cccc(O)c1)N1CC=C(c2ccccc2)C1 [ZINC000336444141] |  | 0.55 | 

Compound | DSF max dTma [1] [°C] | Spearman est (compound concentration vs apparent Tm) | DSF max dTma (maximal thermal upshift)
Fc1ccc(F)c(Sc2ncnc3[nH]ccc23)c1 [ZINC000339235289] |  | 0.01 | 
Cc1nc(Cc2noc(Cc3ccc4[nH]ncc4c3)n2)no1 [ZINC000345855262] |  | −0.06 | 
COc1ccc(-c2nnc(NC(=O)Cc3ncccc3F)s2)cc1 [ZINC000350686468] |  | 0.17 | 
Cc1oc(-c2cccs2)nc1Cc1nc(-c2cncnc2N)no1 [ZINC000350813789] |  | 0.74 | 
CC(C)c1noc(CCc2nc(-c3ccnc4[nH]ccc34)no2)n1 [ZINC000351161347] |  | −0.81 | 
c1ccc2c(c1)N(c1ncnc3[nH]ccc13)CC21CC1 [ZINC000352369310] |  | −0.82 | 
Cc1nc(S(=O)(=O)NCc2ccc(-c3ccncc3)cc2)cn1C [ZINC000352487041] |  | 0.73 | 
c1ccc2c(-c3noc(CCCc4nc(C5CC5)no4)n3)n[nH]c2c1 [ZINC000356759652] |  | 0.72 | 
Cc1ccc(-c2noc(CCCSC3CCCNC3=O)n2)cc1F (stereo not shown) [ZINC000359061121] |  | 0.71 | 
Cc1ccc(NS(=O)(=O)c2ccc(C(F)(F)F)cn2)c(O)n1 [ZINC000359659274] |  | 0.61 | 0.65 ˚C
Cc1n[nH]c2ncc(CN3CC(C)Oc4c(F)cccc43)cc12 (stereo not shown) [ZINC000361138637] |  | 0.07 | 
O=C(c1c(F)ccc(O)c1F)N1CCC(Oc2cccc(F)c2)C1 (stereo not shown) [ZINC000368135547] |  | −0.88 | 
Cc1ccc(C(=O)N2CC[C@H](Oc3ccccc3)C2)cc1O [ZINC000371562024] |  | −0.6 | 
COC(=O)CC1CN(c2ncnc3[nH]ccc23)c2ccccc21 (stereo not shown) [ZINC000371804911] |  | 0.77 | 
CC(C(=O)N1CCCC1c1nc(C(N)=O)no1)c1cccc(F)c1 (stereo not shown) [ZINC000373034135] |  | 0.29 | 
CN(c1cc(NC2CC2)ncn1)C1CCCN(c2cccnn2)C1 (stereo not shown) [ZINC000413143167] |  | −0.41 | 
CN(Cc1cccc(O)c1)C(=O)Cc1ccncc1 [ZINC000542791186] |  | 0.23 | 
NC(=O)c1ccc(Cc2noc(CCc3ccoc3)n2)cc1 [ZINC000546336511] |  | −0.79 | 
Nc1ncnc2c1ncn2CCCc1ccsc1 [ZINC000570815972] |  | 0.79 | 
CC1c2ccc(F)cc2CCN1C(=O)c1cccc(O)c1 (stereo not shown) [ZINC000679635167] |  | −0.95 | 
O=C(Cc1ccc2c(c1)CCO2)OCc1cc2ccccc2[nH]c1=O [ZINC000733430132] |  | −0.12 | 
Cc1cc(-n2cncn2)ccc1C(=O)OCC1OCCc2ccccc21 (stereo not shown) [ZINC000745413896] |  | 0.55 | 
CCc1noc(C(C)OC(=O)c2cccc3[nH]c(=O)oc23)n1 (stereo not shown) [ZINC000751938095] |  | −0.41 | 0.13 ˚C
Cc1ccc(CC(=O)OCc2noc(C3CC3)n2)cc1O [ZINC000772152995] |  | 0.02 | 

Compound | DSF max dTma [1] [°C] | Spearman est (compound concentration vs apparent Tm) | DSF max dTma (maximal thermal upshift)
O=C(COC(=O)c1ccc2nsnc2c1)c1ccccc1 [ZINC000779122380] |  | 0.81 | 
N#Cc1cccc(-n2ccc(C(=O)OCc3cccnc3)n2)c1 [ZINC000798346395] |  | 0.61 | 
Nc1cc(-c2noc(CCn3cccn3)n2)ncn1 [ZINC000820965086] |  | 0.58 | 
O=C(Cc1ccc(-n2cccn2)cc1)OCC1CCCNC1=O (stereo not shown) [ZINC000835985505] |  | −0.14 | 
CS(=O)(=O)C1CCCN(c2ncnc3[nH]c(Cl)cc23)C1 (stereo not shown) [ZINC000865679550] |  | 0.71 | 
Clc1cc2c(N3CCCC(c4cccnc4)C3)ncnc2[nH]1 (stereo not shown) [ZINC000866018680] |  | 0.2 | 
CC1CCc2n[nH]cc2C1C(=O)N(C)OCc1ccccc1 (stereo not shown) [ZINC000879258074] |  | 0.45 | 
Cc1csc(=Nc2ccccc2)n1Cc1nnc2n1CCNC2=O [ZINC000881775356] |  | 0.59 | 
CN(Cc1nnc2c(=O)[nH]ccn12)c1nccc(C(F)(F)F)n1 [ZINC000882897665] |  | 0.38 | 
CN(Cc1nnc2c(=O)[nH]ccn12)c1cc(Cl)nc(C2CC2)n1 [ZINC000882897766] |  | −0.19 | 
CC1C(=O)CCCN1C(=O)c1ccnc2[nH]cnc12 (stereo not shown) [ZINC000885048835] |  | 0.23 | 0.16 ˚C
CNc1cc(N2CCCC(c3nc(C)no3)C2)ncn1 (stereo not shown) [ZINC000891943247] |  | 0.24 | 0.27 ˚C
Cc1ccccc1CC(C)c1nc(-c2cc(N)ncn2)no1 (stereo not shown) [ZINC000896334066] |  | 0.77 | 
c1csc(CC2CCN(c3ncnc4[nH]ccc34)C2)n1 (stereo not shown) [ZINC000897286891] |  | −0.05 | 
CNc1cc(-c2noc(CN3CCCC3=O)n2)ncn1 [ZINC000904236028] |  | −0.56 | 
Cc1nc(Cc2noc(-c3ncnc4[nH]ccc34)n2)no1 [ZINC000904346960] |  | 0.21 | 0.27 ˚C
CC(c1ccc(Cl)c(Cl)c1)S(=O)(=O)Cc1cn[nH]c1 (stereo not shown) [ZINC000905245728] |  | −0.2 | 
CN(C(=O)CN1CCNC(=O)C1)c1ccc(-c2nccs2)cc1 [ZINC000910053700] |  | −0.73 | 
Cc1nc2c(C(=O)OCc3ccnc(N(C)C)c3)ccnc2[nH]1 [ZINC000924094620] |  | 0.62 | 
Cn1cnc(C(=O)NCC2CCN2C(=O)c2ncnc3[nH]ccc23)c1 (stereo not shown) [ZINC000949397098] |  | 0.3 | 0.1 ˚C
CN1C(=O)[C@H]2CN(C(=O)c3ncnc4[nH]ccc34)C[C@H]2C1=O [ZINC001119059028] |  | −0.58 | 0 ˚C
Nc1nc(N)c2ncn(C3CN(C(=O)Cc4cccnc4)C3)c2n1 [ZINC001156036512] |  | 0.06 | 0.61 ˚C
NC(=O)c1ccc(CCSc2cccc(F)c2)cc1 [ZINC001165768885] |  | −0.73 | 
Cc1ccccc1CNc1ncnc(-c2ccccc2)n1 [ZINC001184571635] |  | 0.82 | 
